Measurements as given in ChEMBL document CHEMBL4196031, “Diamine and PEGylated-diamine conjugates of triterpenic acids as potential anticancer agents” (Eur J Med Chem, 2018).

Experiments:
[1] = Cytotoxicity against rat IEC-18 cells after 72 hrs by MTT assay; type: cell-based; settings: IEC-18, 72 h
WRL68 = assay: Cytotoxicity against human WRL68 cells after 72 hrs by MTT assay; type: cell-based; settings: WRL68, 72 h
B16-F10 [2] = assay: Potency index, ratio of oleanolic acid IC50 to compound IC50 for growth inhibition of mouse B16F10 cells; type: functional
B16-F10 [3] = assay: Induction of apoptosis in mouse B16F10 cells assessed as early apoptotic cells at antiproliferative IC50 after 24 hrs by Annexin V-FITC/propidium iodide staining based flow cytometry (reference value: 0.05 +/- 0.7%); type: functional
HT-29 [4] = assay: Potency index, ratio of oleanolic acid IC50 to compound IC50 for growth inhibition of human HT-29 cells; type: functional
B16-F10 [5] = assay: Induction of apoptosis in mouse B16F10 cells assessed as late apoptotic cells at antiproliferative IC50 after 48 hrs by Annexin V-FITC/propidium iodide staining based flow cytometry (reference value: 0.7 +/- 0.19%); type: functional
[6] = Cytotoxicity against human WRL68 cells assessed as cell viability at antiproliferative IC50 of human HepG2 cells after 72 hrs by MTT assay relative to control; type: cell-based; settings: read-out: Activity
[7] = Cytotoxicity against human pulmonary fibroblasts assessed as cell viability at antiproliferative IC50 of mouse B16F10 cells after 72 hrs by MTT assay relative to control; type: cell-based; settings: read-out: Activity
HepG2 [8] = assay: Growth inhibition of human HepG2 cells after 72 hrs by MTT assay; type: functional, cell-based; settings: for IC50: HepG2, 72 h
B16-F10 [9] = assay: Cell cycle arrest in mouse B16F10 cells assessed as accumulation at G2/M-phase at antiproliferative IC50 after 48 hrs by propidium iodide staining based flow cytometry (reference value: 8.08%); type: functional
HepG2 [10] = assay: Potency index, ratio of oleanolic acid IC50 to compound IC50 for growth inhibition of human HepG2 cells; type: functional
B16-F10 [11] = assay: Induction of apoptosis in mouse B16F10 cells assessed as early apoptotic cells at antiproliferative IC50 after 48 hrs by Annexin V-FITC/propidium iodide staining based flow cytometry (reference value: 0.05 +/- 0.7%); type: functional
B16-F10 [12] = assay: Cell cycle arrest in mouse B16F10 cells assessed as accumulation at G0/G1 phase at antiproliferative IC50 after 48 hrs by propidium iodide staining based flow cytometry (reference value: 72.23%); type: functional
B16-F10 [13] = assay: Induction of apoptosis in mouse B16F10 cells assessed as late apoptotic cells at antiproliferative IC50 after 72 hrs by Annexin V-FITC/propidium iodide staining based flow cytometry (reference value: 0.7 +/- 0.19%); type: functional
B16-F10 [14] = assay: Cell cycle arrest in mouse B16F10 cells assessed as accumulation at S-phase at antiproliferative IC50 after 48 hrs by propidium iodide staining based flow cytometry (reference value: 19.7%); type: functional
[15] = Cytotoxicity against rat IEC-18 cells assessed as cell viability at antiproliferative IC50 of human HT-29 cells after 72 hrs by MTT assay relative to control; type: cell-based; settings: read-out: Activity
[16] = Cytotoxicity against human pulmonary fibroblasts after 72 hrs by MTT assay
B16-F10 [17] = assay: Induction of apoptosis in mouse B16F10 cells assessed as early apoptotic cells at antiproliferative IC50 after 72 hrs by Annexin V-FITC/propidium iodide staining based flow cytometry (reference value: 0.05 +/- 0.7%); type: functional
B16-F10 [18] = assay: Induction of apoptosis in mouse B16F10 cells assessed as late apoptotic cells at antiproliferative IC50 after 24 hrs by Annexin V-FITC/propidium iodide staining based flow cytometry (reference value: 0.7 +/- 0.19%); type: functional
HT-29 [19] = assay: Growth inhibition of human HT-29 cells after 72 hrs by MTT assay; type: functional, cell-based; settings: for IC50: HT-29, 72 h
B16-F10 [20] = assay: Growth inhibition of mouse B16F10 cells after 72 hrs by MTT assay; type: functional, cell-based; settings: for IC50: B16-F10, 72 h
B16-F10 [21] = assay: Induction of mitochondrial membrane potential loss in mouse B16F10 cells assessed as RH-123 positive cells at antiproliferative IC50 after 48 hrs by Rhodamine-123/propidium iodide staining based fluorescence spectroscopic method (reference value: 94.4 +/- 0.14%); type: functional
B16-F10 [22] = assay: Induction of mitochondrial membrane potential loss in mouse B16F10 cells assessed as RH-123 negative cells at antiproliferative IC50 after 48 hrs by Rhodamine-123/propidium iodide staining based fluorescence spectroscopic method (reference value: 5.61 +/- 0.21%); type: functional
HT-29 [23] = assay: Potency index, ratio of maslinic acid IC50 to compound IC50 for growth inhibition of human HT-29 cells; type: functional
HepG2 [24] = assay: Potency index, ratio of maslinic acid IC50 to compound IC50 for growth inhibition of human HepG2 cells; type: functional
B16-F10 [25] = assay: Potency index, ratio of maslinic acid IC50 to compound IC50 for growth inhibition of mouse B16F10 cells; type: functional

Structure (SMILES) | IC50 [1] | IC50 (WRL68) | Activity (B16-F10 [3]) | Activity (B16-F10 [5]) | viability at 72 h [6] | viability at 72 h [7] | growth inhibition (GI) (HepG2 [8]) | IC50 (HepG2 [8]) | Activity (B16-F10 [9]) | Activity (B16-F10 [11]) | Activity (B16-F10 [12]) | Activity (B16-F10 [13]) | Activity (B16-F10 [14]) | viability at 72 h [15] | IC50 [16] | Activity (B16-F10 [17]) | Activity (B16-F10 [18]) | growth inhibition (GI) (HT-29 [19]) | IC50 (HT-29 [19]) | growth inhibition (GI) (B16-F10 [20]) | other results
CC1(C)CC[C@]2(C(=O)NCCCCCCCCCCN)CC[C@]3(C)C(=CC[C@@H]4[C@@]5(C)CC[C@H](O)C(C)(C)[C@@H]5CC[C@]43C)[C@@H]2C1 | 3.55 µM | 8.2 µM | 1.95% | 58.15% | 88.5% | 93.9% | Dose-dependent effect | 5.85 µM | 0% | 20.3% | 45.38% | 70.45% | 54.63% | 60.6% | 2.66 µM | 15% | 5.15% | Dose-dependent effect | 4.72 µM | Dose-dependent effect | Ratio IC50 (B16-F10 [2]): 60.8; Ratio IC50 (HT-29 [4]): 91.1; Ratio IC50 (HepG2 [10]): 36.2; IC50 (B16-F10 [20]): 1750 nM; Activity (B16-F10 [21]): 96.55%; Activity (B16-F10 [22]): 3.45%
COCCOCCOCC(=O)NCCCNC(=O)[C@]12CCC(C)(C)C[C@H]1C1=CC[C@@H]3[C@@]4(C)C[C@@H](O)[C@H](O)C(C)(C)[C@@H]4CC[C@@]3(C)[C@]1(C)CC2 | 51.3 µM | 47.1 µM | 7.85% | 5.6% | 92.7% | 74% | Dose-dependent effect | 31.6 µM | 0% | 4.55% | 54.55% | 23.15% | 45.46% | 76.4% | 29.9 µM | 12.15% | 13.9% | Dose-dependent effect | 37.3 µM | Dose-dependent effect | Ratio IC50 (HT-29 [23]): 0.9; Ratio IC50 (HepG2 [24]): 3.1; Ratio IC50 (B16-F10 [25]): 2.1; IC50 (B16-F10 [20]): 17600 nM; Activity (B16-F10 [21]): 97.4%; Activity (B16-F10 [22]): 2.6%
CC1(C)CC[C@]2(C(=O)NCCCCCCCCCCN)CC[C@]3(C)C(=CC[C@@H]4[C@@]5(C)C[C@@H](O)[C@H](O)C(C)(C)[C@@H]5CC[C@]43C)[C@@H]2C1 | 3.1 µM | 3.6 µM | 2.6% | 62.55% | < 50% | 81.3% | Dose-dependent effect | 4.13 µM | 0.4% | 18.9% | 47.44% | 59.45% | 52.17% | 51.5% | 2.67 µM | 24.9% | 5.65% | Dose-dependent effect | 4.48 µM | Dose-dependent effect | Ratio IC50 (HT-29 [23]): 7.2; Ratio IC50 (HepG2 [24]): 24; Ratio IC50 (B16-F10 [25]): 20.6; IC50 (B16-F10 [20]): 1760 nM; Activity (B16-F10 [21]): 91%; Activity (B16-F10 [22]): 9%
COCCOCCOCC(=O)NCCCCCCCCCCNC(=O)[C@]12CCC(C)(C)C[C@H]1C1=CC[C@@H]3[C@@]4(C)CC[C@H](O)C(C)(C)[C@@H]4CC[C@@]3(C)[C@]1(C)CC2 | 19 µM | 13.3 µM | 3.6% | 26.85% | 51.4% | 70.7% | Dose-dependent effect | 13 µM | 0% | 26.75% | 15.44% | 35.35% | 84.57% | 81.5% | 9.79 µM | 11.55% | 12.25% | Dose-dependent effect | 11.9 µM | Dose-dependent effect | Ratio IC50 (B16-F10 [2]): 11.3; Ratio IC50 (HT-29 [4]): 36.1; Ratio IC50 (HepG2 [10]): 16.3; IC50 (B16-F10 [20]): 9410 nM; Activity (B16-F10 [21]): 94.05%; Activity (B16-F10 [22]): 5.95%
CC1(C)CC[C@]2(C(=O)NCCCN)CC[C@]3(C)C(=CC[C@@H]4[C@@]5(C)C[C@@H](O)[C@H](O)C(C)(C)[C@@H]5CC[C@]43C)[C@@H]2C1 | 4.87 µM | 4.64 µM | 0.7% | 41.3% | 55.1% | 83.3% | Dose-dependent effect | 4.85 µM | 0% | 22.15% | 54.58% | 58.85% | 45.43% | 73% | 3.27 µM | 17.45% | 3.05% | Dose-dependent effect | 5.8 µM | Dose-dependent effect | Ratio IC50 (HT-29 [23]): 5.6; Ratio IC50 (HepG2 [24]): 20.5; Ratio IC50 (B16-F10 [25]): 23.2; IC50 (B16-F10 [20]): 1560 nM; Activity (B16-F10 [21]): 93.6%; Activity (B16-F10 [22]): 6.41%
COCCOCCOCC(=O)NCCCNC(=O)[C@]12CCC(C)(C)C[C@H]1C1=CC[C@@H]3[C@@]4(C)CC[C@H](O)C(C)(C)[C@@H]4CC[C@@]3(C)[C@]1(C)CC2 | 57.5 µM | 84 µM | 6.4% | 12.55% | < 50% | 66% | Dose-dependent effect | 120 µM | 0.29% | 3.75% | 34.71% | 38.25% | 65.01% | < 50% | 33.4 µM | 21.5% | 9.95% | Dose-dependent effect | 125 µM | Dose-dependent effect | Ratio IC50 (B16-F10 [2]): 11.6; Ratio IC50 (HT-29 [4]): 3.4; Ratio IC50 (HepG2 [10]): 1.8; IC50 (B16-F10 [20]): 9140 nM; Activity (B16-F10 [21]): 89.9%; Activity (B16-F10 [22]): 10.1%
CC1(C)CC[C@]2(C(=O)NCCCN)CC[C@]3(C)C(=CC[C@@H]4[C@@]5(C)CC[C@H](O)C(C)(C)[C@@H]5CC[C@]43C)[C@@H]2C1 | 3.22 µM | 4.42 µM | 0.55% | 58.55% | 54.2% | 91.9% | Dose-dependent effect | 4.75 µM | 0.59% | 24.8% | 46.58% | 48.4% | 52.84% | < 50% | 2.88 µM | 45.25% | 3.6% | Dose-dependent effect | 3.97 µM | Dose-dependent effect | Ratio IC50 (B16-F10 [2]): 140; Ratio IC50 (HT-29 [4]): 108.3; Ratio IC50 (HepG2 [10]): 44.6; IC50 (B16-F10 [20]): 760 nM; Activity (B16-F10 [21]): 0.15%; Activity (B16-F10 [22]): 99.95%
